Experimental data as given in ChEMBL document CHEMBL1201862, “PubChem BioAssay data set” (2004).
Active and inactive are the calls of the source.

Assays:
[1] = system: Vero; assay: cells; assay type: functional, cell-based; settings: Chlorocebus sabaeus
[2] = system: Vero; assay: cells; assay type: functional; settings: Chlorocebus sabaeus
[3] = biological target: Hepatocyte nuclear factor 4-alpha (Homo sapiens, UniProt P41235); assay type: functional, cell-based;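 further: biochemical luminescence-based dose-response counterscreen measuring inhibition of HNF4 dimerization, run alongside a screen for blockers of ABHD5–perilipin-5 interaction; split luciferase complementation of HNF4 fusion proteins in cell lysate measuring dimerization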
[4] = Trypanosoma cruzi growth suppression in host cells – NIH3T3 host cells, beta-gal luminescence, confirmation (AID 2044); assay type: functional, cell-based;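 further: intracellular parasites grown in NIH/3T3 mouse fibroblasts as host cells; luminescent beta-galactosidase reporter signal from transgenic T. cruzi replicating inside host cells; inhibitors lower the luminescence signal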
[5] = NIH3T3 cell viability loss – ATP luminescence, mouse fibroblasts, counter-screen, dose response (AID 2010); assay type: functional, cell-based;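 further: cells exposed to compound for about 90 hours before reading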
[6] = biological target: Beta-galactosidase (Escherichia coli, UniProt Q8VNN2); assay: detection-enzyme interference by beta-gal modulators – biochemical, E. coli enzyme, set 3, artefact control for CCR6 antagonist project, dose response (AID 504712); assay type: functional
[7] = biological target: T1, Hexokinase HKDC1 (Homo sapiens, UniProt Q2TB90); assay: inhibition of HKDC1 glucose phosphorylation – biochemical, W721R variant, dose response (AID 504729); assay type: functional
T1 sequence (Q2TB90 whole entry): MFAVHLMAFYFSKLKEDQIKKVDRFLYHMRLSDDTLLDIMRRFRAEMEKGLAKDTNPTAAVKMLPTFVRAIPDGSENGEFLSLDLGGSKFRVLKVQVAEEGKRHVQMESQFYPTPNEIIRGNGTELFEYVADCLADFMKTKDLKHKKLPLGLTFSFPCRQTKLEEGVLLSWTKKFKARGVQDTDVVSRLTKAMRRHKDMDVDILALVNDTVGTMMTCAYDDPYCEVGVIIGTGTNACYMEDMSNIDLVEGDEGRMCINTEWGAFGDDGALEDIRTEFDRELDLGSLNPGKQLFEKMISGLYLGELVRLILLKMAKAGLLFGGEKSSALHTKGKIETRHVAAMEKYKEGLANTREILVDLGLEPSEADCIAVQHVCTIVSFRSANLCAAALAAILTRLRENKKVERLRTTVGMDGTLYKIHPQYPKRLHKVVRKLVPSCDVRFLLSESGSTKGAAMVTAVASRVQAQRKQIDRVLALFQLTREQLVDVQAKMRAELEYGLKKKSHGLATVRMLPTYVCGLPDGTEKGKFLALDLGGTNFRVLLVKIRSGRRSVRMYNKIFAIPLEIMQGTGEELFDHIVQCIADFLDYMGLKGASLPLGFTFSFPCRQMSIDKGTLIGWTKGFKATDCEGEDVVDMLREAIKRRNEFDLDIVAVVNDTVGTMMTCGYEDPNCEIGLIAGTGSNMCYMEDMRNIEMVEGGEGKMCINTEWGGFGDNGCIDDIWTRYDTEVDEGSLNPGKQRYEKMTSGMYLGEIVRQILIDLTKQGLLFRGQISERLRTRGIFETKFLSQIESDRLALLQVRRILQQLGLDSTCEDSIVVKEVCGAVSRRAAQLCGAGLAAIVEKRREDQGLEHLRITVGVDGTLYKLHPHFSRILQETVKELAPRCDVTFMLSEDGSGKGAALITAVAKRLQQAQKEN

[8] = system: Vero; assay: viability of Vero cells under compound – cytotoxicity control for flavivirus capping enzyme inhibitors (AID 588742); assay type: functional; settings: Chlorocebus sabaeus
[9] = biological target: Beta-arrestin-1 (Homo sapiens, UniProt P49407); assay: beta-arrestin/AP2 interaction blockers, potency – biochemical, cherry pick 1, beta2-adaptin appendage, flow cytometry, dose response (AID 588783); assay type: functional
[10] = biological target: Genome polyprotein (dengue virus type 2, UniProt P29990); assay: flavivirus cap methylation enzyme inhibition – biochemical, confirmation dose response, primary screen (AID 588689); assay type: functional
[11] = biological target: T2, Polyadenylate-binding protein 1 (Homo sapiens, UniProt P11940); assay: MLLE binding blockers, Cy5 peptide tracer – biochemical, fluorescence polarization, Cy5-PAM2 peptide, secondary, miRNA deadenylation inhibitor project, dose response (AID 602260); assay type: functional; settings: read-out: IC50_Mean
[12] = biological target: T2, Polyadenylate-binding protein 1; assay: MLLE domain peptide-binding blockers, IC50 – biochemical, fluorescence polarization, FITC-PAM2 peptide, dose response (AID 602259); assay type: functional; settings: read-out: IC50_Mean
[13] = biological target: T3, Rac GTPase-activating protein 1 (Homo sapiens, UniProt Q9H0H5); assay: blockers of MgcRacGAP-driven Rac1 GTP hydrolysis – biochemical, ADP Hunter fluorescence, primary and confirmatory, confirmation (AID 624330); assay type: functional
T3 sequence (Q9H0H5 whole entry): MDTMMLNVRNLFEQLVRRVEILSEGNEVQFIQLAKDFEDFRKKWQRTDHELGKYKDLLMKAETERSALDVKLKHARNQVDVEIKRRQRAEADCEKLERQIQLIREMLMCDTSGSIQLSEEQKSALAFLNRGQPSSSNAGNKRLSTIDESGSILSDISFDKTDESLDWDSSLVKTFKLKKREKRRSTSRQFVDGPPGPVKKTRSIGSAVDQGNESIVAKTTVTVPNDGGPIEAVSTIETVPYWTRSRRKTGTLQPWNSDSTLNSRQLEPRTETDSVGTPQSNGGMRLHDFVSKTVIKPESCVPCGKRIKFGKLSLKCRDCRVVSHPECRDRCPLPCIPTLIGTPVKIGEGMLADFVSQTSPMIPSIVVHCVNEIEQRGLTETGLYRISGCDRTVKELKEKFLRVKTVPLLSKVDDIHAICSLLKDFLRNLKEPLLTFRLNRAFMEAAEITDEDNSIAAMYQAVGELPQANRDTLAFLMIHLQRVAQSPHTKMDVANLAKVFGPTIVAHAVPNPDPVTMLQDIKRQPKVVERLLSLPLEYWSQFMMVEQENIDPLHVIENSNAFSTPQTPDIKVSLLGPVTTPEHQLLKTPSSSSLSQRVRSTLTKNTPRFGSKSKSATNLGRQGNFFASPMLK

[14] = biological target: Delta-type opioid receptor (Homo sapiens, UniProt P41143); assay: Counterscreen for agonists of heterodimerization of the mu 1 (OPRM1) and delta 1 (OPRD1) opioid receptors: Luminescence-based cell-based high throughput dose response assay to identify agonists of OPRD1 homodimerization. [Related pubchem assays (depositor defined):AID504326, AID504355, AID504692, AID504904, AID504905]; assay type: functional
[15] = biological target: Mu-type opioid receptor (Homo sapiens, UniProt P35372); assay: Counterscreen for agonists of heterodimerization of the mu 1 (OPRM1) and delta 1 (OPRD1) opioid receptors: Luminescence-based cell-based high throughput dose response assay to identify agonists of OPRM1 homodimerization.; assay type: functional;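 further: U2OS cells expressing OPRM1 and beta-arrestin as split beta-galactosidase partners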
[16] = biological target: 5-hydroxytryptamine receptor 5A (Homo sapiens, UniProt P47898); assay: Counterscreen for agonists of OPRM1-OPRD1 heterodimerization: luminescence-based cell-based high throughput dose response assay to identify agonists of 5-hydroxytryptamine (serotonin) 5A receptor (HTR5A). [Related pubchem assays (depositor defined):AID504326, AID504355, AID504692, AID504904, AID504905]; assay type: functional
Sequence of 5-hydroxytryptamine receptor 5A (P47898 whole entry): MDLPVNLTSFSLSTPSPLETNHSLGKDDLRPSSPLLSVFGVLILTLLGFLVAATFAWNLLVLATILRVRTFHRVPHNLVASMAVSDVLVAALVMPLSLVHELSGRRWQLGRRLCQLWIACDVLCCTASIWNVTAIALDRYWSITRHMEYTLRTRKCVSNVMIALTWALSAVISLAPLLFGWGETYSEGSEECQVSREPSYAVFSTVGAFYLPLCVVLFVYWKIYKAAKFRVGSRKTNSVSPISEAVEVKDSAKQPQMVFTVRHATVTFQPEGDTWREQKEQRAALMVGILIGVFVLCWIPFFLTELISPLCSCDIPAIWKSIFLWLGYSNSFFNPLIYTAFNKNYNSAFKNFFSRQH

T2 sequence (P11940 whole entry, the tested form may be a part): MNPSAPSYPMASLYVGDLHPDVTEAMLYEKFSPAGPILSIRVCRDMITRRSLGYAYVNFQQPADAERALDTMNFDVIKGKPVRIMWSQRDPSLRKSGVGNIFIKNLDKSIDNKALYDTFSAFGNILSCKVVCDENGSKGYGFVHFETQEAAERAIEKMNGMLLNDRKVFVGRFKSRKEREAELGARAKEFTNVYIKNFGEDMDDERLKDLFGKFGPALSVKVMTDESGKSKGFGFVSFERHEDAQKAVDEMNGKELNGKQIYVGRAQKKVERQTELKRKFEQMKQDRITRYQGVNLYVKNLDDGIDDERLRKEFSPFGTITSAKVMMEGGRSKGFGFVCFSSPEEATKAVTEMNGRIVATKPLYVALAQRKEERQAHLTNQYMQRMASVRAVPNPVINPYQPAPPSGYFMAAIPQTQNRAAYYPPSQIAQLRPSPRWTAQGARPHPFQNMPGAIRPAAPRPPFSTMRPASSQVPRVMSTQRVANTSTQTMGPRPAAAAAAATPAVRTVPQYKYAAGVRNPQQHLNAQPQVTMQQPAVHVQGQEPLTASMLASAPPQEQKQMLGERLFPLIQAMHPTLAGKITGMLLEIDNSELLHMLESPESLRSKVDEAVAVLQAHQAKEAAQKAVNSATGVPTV
Sequence of Beta-galactosidase (Q8VNN2 whole entry): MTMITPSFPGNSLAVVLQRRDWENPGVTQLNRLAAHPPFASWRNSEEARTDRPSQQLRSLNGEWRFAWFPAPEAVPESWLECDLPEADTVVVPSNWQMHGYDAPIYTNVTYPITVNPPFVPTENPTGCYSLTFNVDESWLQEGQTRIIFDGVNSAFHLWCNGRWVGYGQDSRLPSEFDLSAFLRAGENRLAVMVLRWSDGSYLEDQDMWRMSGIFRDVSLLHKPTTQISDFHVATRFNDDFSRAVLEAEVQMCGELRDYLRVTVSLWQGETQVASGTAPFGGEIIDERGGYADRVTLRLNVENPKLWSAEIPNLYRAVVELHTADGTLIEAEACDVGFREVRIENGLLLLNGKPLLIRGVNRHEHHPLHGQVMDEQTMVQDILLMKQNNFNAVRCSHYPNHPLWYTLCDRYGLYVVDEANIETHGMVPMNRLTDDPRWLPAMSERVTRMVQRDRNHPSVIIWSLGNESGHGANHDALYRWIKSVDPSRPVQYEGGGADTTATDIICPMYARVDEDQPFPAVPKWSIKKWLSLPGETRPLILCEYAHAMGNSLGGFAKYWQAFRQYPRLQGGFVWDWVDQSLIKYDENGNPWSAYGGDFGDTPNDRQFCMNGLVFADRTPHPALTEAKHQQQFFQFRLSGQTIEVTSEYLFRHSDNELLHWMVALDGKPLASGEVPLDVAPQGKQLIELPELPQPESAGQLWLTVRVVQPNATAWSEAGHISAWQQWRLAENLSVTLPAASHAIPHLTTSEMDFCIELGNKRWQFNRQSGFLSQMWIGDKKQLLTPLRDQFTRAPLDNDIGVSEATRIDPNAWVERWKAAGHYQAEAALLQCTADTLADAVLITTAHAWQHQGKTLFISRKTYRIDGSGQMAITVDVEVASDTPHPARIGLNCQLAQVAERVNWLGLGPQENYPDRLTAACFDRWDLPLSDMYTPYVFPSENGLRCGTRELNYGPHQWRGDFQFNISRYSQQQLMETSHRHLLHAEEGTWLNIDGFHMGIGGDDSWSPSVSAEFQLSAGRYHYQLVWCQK
Sequence of Delta-type opioid receptor (P41143 whole entry): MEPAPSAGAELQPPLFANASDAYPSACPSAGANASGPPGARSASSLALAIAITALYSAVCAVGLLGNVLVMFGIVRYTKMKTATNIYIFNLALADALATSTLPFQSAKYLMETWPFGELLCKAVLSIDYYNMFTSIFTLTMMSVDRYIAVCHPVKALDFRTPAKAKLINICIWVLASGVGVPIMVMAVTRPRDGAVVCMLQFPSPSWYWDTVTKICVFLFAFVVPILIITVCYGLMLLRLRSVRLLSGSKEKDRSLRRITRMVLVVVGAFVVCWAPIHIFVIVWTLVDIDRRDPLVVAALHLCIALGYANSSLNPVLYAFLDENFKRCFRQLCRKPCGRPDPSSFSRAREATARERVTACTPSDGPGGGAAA
Sequence of Hepatocyte nuclear factor 4-alpha (P41235 whole entry, the tested form may be a part): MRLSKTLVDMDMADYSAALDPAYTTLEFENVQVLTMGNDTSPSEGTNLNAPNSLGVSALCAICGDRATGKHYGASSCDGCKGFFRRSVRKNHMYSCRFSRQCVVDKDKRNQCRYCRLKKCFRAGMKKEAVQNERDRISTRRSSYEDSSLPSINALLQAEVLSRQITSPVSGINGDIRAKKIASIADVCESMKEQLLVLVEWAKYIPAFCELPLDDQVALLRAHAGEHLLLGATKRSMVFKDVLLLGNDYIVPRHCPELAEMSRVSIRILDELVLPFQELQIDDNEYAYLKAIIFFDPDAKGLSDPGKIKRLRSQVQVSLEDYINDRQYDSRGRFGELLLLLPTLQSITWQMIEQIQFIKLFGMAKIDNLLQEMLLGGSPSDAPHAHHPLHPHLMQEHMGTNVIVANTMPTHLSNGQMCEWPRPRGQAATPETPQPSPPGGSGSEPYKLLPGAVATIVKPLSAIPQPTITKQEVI
Sequence of Mu-type opioid receptor (P35372 whole entry): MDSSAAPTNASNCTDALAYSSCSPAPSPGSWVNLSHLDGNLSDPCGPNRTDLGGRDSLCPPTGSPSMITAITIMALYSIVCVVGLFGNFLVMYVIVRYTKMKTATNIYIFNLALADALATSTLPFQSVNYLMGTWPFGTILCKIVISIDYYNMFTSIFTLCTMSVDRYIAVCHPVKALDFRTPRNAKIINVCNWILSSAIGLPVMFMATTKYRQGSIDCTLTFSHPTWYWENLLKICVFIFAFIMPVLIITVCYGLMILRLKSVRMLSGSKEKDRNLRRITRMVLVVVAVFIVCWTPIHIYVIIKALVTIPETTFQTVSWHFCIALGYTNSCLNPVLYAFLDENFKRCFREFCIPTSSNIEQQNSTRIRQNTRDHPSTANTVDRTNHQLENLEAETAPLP
Sequence of Genome polyprotein (P29990 2492-3391 limits assumed): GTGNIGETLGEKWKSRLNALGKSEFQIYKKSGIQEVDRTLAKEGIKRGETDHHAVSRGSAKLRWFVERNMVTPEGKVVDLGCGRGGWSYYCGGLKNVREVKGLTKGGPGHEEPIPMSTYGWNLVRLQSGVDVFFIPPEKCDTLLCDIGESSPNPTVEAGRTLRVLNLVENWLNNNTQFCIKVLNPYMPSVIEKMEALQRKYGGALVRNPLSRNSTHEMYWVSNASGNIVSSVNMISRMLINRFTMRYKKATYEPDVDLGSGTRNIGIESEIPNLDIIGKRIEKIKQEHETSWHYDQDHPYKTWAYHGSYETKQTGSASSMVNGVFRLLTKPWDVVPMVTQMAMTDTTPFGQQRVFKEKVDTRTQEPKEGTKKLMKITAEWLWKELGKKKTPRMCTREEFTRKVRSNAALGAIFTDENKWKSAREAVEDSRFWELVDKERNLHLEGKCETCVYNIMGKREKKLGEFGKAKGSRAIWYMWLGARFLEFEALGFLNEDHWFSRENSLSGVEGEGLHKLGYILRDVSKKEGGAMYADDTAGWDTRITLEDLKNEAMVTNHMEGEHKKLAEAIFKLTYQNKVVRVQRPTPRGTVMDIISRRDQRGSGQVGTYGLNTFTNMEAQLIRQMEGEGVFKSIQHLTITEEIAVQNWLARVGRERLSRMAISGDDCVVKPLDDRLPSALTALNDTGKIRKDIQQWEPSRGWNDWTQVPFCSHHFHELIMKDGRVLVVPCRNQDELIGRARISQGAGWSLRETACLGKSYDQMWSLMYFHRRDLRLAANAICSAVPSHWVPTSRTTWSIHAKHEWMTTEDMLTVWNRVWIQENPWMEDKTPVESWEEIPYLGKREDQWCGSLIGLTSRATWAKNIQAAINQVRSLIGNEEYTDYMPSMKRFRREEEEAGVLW
Sequence of Beta-arrestin-1 (P49407 whole entry): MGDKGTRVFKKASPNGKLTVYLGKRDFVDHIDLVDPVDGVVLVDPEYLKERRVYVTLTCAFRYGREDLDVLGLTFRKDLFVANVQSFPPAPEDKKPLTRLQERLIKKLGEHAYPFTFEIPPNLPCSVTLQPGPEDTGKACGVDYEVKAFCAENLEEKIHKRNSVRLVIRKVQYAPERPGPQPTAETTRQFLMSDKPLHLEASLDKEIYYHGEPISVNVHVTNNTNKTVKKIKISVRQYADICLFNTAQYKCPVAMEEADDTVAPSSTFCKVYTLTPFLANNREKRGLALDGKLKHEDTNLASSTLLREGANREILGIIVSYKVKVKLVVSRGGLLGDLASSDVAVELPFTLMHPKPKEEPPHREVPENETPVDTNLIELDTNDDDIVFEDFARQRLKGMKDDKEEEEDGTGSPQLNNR

Question: With COC(=O)c1ccc(Cn2cc(/C=C\[N+](=O)[O-])c3ccccc32)o1 as the compound, how does the IC50 [1] read?
Answer: > 25 µM (active)

Question: What about the CC50 [2] of the same compound?
Answer: 10.4 µM (active)

Question: And the IC50 [3]?
Answer: 6.73 µM (active)

Question: With O=C1C(Cl)=C(NC(=O)c2ccccc2)C(=O)C(Cl)=C1NC(=O)c1ccccc1 as the compound, how does the EC50 [4] read?
Answer: 2.13 µM (active)

Question: What about the EC50 [5] of the same compound?
Answer: 2.78 µM (active)

Question: What about the IC50 [6] of the same compound?
Answer: > 66.6 µM (inactive)

Question: What about the IC50 [7] of the same compound?
Answer: 17.3 µM (active)

Question: What about the CC50 [8] of the same compound?
Answer: 29.5 µM (active)

Question: And the IC50 [9]?
Answer: 4.97 µM (active)

Question: What about the IC50 [10] of the same compound?
Answer: 3.53 µM (active)

Question: And the IC50 [11]?
Answer: 44.5 µM (inactive)

Question: And the IC50 [12]?
Answer: > 66 µM (inactive)

Question: What about the IC50 [13] of the same compound?
Answer: 6.06 µM (active)

Question: Which results are given for O=S(=O)(c1c(Cl)cc(Br)cc1Cl)N1CCN(C(=S)NC2CC2)CC1?
Answer: EC50 [14]: 11.9 µM (inactive); EC50 [15]: > 92.5 µM (inactive); EC50 [16]: > 92.5 µM (inactive)
